Assay [1] addresses EGFR L858R/T790M/C797S (Homo sapiens, UniProt P00533, C797S/L858R/T790M). Put plainly: Biochemical EGFR kinase assay (Lance Ultra TR-FRET), triple mutant L858R/T790M/C797S. In outline: (§1)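 In this biochemical assay, phosphorylation after a one-hour room-temperature reaction was detected with europium-labelled anti-phosphopeptide antibody at 2 nM final concentration.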
Assay [2] concerns the target EGFR L858R/C797S (Homo sapiens, UniProt P00533, C797S/L858R). Description: Biochemical EGFR kinase assay (Lance Ultra TR-FRET), double mutant L858R/C797S. The method, boiled down:
as §1
A general note: In TR-FRET formats the signal depends on donor and acceptor labels being close together.

For assay [3], the target named is EGFR wildtype (Homo sapiens, UniProt P00533). Description: Biochemical EGFR kinase assay (Lance Ultra TR-FRET), wildtype. The method, boiled down: as §1
Chain of EGFR wildtype (P00533 25-1210): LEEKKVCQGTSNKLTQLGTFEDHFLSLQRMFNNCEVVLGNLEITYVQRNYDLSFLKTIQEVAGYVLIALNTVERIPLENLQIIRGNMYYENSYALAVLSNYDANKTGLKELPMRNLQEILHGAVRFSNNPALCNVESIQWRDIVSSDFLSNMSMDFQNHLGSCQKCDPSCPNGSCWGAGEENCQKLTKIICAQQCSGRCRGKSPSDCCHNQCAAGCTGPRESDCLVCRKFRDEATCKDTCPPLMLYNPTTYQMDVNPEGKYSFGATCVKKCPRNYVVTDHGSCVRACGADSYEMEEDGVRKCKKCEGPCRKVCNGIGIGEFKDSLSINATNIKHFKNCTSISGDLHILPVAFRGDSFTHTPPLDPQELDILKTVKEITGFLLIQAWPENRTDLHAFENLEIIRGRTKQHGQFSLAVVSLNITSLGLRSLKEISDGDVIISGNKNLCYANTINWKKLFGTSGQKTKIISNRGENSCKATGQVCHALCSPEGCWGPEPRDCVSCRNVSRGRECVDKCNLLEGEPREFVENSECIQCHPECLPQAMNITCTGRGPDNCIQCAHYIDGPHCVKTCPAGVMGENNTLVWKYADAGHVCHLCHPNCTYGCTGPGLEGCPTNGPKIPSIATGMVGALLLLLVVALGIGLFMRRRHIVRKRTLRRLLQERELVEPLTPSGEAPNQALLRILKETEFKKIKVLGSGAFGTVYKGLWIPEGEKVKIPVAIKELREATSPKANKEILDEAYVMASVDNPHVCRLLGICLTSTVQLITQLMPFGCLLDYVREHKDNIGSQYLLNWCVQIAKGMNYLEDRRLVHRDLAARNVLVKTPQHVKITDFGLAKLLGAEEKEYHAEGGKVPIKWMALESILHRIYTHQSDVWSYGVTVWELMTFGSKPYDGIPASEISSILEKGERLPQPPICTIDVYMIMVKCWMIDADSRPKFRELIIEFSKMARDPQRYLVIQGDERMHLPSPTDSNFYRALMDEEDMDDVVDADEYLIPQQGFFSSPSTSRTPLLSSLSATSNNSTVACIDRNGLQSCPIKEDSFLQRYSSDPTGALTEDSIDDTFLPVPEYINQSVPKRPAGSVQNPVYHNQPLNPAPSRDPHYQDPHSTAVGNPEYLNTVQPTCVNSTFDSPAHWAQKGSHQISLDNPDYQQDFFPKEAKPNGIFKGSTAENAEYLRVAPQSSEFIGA
The target of assay [4] is EGFR del19/C797S (Homo sapiens, UniProt P00533, C797S/DEL746-750). Put plainly: Biochemical EGFR kinase assay (Lance Ultra TR-FRET), double mutant del19/C797S. In outline: as §1
For assay [5], the target named is EGFR del19/T790M/C797S (Homo sapiens, UniProt P00533, C797S/DEL746-750/T790M). Description: Biochemical EGFR kinase assay (Lance Ultra TR-FRET), triple mutant del19/T790M/C797S. The method, boiled down:
as §1

Setting [6] is: ATP at Km, read-out: IC50 L858R/T790M/C797S, Km ATP.
The mark [7] stands for this setting: IC50 L858R/T790M/C797S, 100 μM ATP.
[8] abbreviates: ATP at Km, read-out: IC50 L858R/C797S, Km ATP.
The mark [9] stands for this setting: ATP at Km, read-out: IC50 WT, Km ATP.
[10] abbreviates: ATP at Km, read-out: IC50 del19/C797S, Km ATP.
[11] abbreviates: ATP at Km, read-out: IC50 del19/T790M/C797S, Km ATP.
Where [12] appears, read: IC50 del19/T790M/C797S, 100 μM ATP.

IC50 data for 11 compounds are collected here from patent US12258328B2, “6-membered heteroaryl-containing aminopyridine compounds as EGFR inhibitors” (YUHAN CORPORATION, priority 2021, dated 2025).

Read-outs that look alike come from different tables or passages of the source. Bounds are passed on as bounds.

Chain of EGFR del19/T790M/C797S (P00533 with tags, fused parts or gaps DEL746-750/T790M/C797S): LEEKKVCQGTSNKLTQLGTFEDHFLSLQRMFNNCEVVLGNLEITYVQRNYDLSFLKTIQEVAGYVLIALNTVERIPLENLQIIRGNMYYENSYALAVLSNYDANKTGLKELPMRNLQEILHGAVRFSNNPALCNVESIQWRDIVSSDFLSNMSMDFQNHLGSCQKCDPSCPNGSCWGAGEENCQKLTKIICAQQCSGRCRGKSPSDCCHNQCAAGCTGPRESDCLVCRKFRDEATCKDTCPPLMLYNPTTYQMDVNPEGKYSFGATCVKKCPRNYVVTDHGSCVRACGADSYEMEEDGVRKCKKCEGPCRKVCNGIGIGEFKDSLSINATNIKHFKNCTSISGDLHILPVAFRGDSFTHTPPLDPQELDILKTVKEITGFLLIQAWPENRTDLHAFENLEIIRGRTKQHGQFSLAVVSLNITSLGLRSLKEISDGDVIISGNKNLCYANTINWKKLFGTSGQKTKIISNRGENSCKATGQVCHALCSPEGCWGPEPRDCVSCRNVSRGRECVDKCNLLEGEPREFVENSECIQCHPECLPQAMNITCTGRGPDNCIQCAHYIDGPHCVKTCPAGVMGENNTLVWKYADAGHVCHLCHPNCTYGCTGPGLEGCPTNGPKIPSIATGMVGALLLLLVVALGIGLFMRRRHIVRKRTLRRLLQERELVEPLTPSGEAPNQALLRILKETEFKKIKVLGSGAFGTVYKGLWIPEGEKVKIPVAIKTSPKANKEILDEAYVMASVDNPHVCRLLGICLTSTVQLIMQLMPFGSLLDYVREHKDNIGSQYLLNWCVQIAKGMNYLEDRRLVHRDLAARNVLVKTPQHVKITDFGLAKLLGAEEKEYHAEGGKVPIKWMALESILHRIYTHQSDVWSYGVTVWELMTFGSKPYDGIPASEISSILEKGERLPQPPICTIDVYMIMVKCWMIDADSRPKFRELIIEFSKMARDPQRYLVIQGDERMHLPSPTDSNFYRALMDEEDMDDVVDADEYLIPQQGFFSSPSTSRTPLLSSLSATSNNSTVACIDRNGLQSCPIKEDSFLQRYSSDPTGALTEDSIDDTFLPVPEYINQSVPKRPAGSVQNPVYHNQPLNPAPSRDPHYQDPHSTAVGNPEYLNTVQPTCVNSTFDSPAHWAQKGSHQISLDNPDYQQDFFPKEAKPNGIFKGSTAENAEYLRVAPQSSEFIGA
Chain of EGFR L858R/C797S (P00533 25-1210 C797S/L858R): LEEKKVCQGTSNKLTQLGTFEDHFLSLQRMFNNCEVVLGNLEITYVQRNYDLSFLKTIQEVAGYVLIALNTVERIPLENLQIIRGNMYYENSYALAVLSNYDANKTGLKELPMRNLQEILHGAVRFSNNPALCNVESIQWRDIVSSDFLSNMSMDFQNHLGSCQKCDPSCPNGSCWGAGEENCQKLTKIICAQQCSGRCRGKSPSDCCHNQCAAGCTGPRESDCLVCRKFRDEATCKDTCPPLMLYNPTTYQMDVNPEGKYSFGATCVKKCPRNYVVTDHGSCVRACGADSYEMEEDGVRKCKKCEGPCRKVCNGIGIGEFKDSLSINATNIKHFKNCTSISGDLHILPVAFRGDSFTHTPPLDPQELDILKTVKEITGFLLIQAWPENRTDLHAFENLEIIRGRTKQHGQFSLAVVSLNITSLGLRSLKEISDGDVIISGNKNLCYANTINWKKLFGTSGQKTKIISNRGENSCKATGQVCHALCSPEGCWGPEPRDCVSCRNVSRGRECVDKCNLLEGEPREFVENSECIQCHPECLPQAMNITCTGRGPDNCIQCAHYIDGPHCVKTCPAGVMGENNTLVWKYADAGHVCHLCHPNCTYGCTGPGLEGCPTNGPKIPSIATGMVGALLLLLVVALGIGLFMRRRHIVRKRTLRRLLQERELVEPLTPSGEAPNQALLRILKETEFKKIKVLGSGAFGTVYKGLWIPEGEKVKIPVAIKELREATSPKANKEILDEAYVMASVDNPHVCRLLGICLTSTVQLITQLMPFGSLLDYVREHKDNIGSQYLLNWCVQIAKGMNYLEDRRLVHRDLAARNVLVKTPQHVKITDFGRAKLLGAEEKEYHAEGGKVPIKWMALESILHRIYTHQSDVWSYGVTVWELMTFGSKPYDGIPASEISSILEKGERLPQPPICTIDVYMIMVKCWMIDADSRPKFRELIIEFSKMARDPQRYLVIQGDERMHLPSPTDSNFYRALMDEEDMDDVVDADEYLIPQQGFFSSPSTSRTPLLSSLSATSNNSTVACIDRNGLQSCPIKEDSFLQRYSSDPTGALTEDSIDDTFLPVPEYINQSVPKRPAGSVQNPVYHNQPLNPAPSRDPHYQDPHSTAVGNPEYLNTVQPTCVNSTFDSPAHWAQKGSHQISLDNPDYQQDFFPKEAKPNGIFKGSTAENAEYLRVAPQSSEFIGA
Chain of EGFR L858R/T790M/C797S (P00533 25-1210 T790M/C797S/L858R): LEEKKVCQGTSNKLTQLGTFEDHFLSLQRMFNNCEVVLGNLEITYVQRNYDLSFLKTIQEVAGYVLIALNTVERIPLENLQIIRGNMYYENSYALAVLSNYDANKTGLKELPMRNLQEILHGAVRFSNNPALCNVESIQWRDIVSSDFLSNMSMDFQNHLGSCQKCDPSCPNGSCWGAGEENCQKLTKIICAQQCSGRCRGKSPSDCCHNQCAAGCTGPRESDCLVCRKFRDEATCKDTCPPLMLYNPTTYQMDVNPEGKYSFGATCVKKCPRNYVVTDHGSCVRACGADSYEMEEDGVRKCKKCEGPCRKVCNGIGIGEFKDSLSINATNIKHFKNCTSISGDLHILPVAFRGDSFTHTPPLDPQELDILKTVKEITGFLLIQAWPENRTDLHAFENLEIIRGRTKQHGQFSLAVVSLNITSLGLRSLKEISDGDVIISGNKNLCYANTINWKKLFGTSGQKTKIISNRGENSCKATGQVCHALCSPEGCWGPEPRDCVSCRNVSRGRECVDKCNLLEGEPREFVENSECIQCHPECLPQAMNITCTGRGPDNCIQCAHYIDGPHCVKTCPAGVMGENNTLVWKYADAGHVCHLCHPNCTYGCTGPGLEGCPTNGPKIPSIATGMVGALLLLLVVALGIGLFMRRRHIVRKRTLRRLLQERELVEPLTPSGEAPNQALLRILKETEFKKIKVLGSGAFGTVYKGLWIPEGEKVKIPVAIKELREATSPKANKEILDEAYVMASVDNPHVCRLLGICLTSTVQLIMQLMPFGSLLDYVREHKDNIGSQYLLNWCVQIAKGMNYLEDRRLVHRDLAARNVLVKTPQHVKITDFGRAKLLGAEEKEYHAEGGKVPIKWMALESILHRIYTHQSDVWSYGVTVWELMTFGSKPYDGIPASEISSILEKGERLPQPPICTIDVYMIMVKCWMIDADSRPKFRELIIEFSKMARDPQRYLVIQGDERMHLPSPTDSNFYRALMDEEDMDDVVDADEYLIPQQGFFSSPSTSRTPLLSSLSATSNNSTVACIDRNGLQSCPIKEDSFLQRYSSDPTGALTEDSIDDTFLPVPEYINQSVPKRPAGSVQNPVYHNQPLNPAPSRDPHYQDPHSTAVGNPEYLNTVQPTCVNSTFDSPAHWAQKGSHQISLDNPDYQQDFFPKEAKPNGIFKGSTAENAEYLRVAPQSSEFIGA

On to `O=S(=O)(C1CC1)n1cc(-c2nccc(Nc3cc(N[C@H]4CC[C@@H](CCO)CC4)c(-c4ccc(CC(F)(F)F)cn4)cn3)n2)cn1` [Example 223, 2-((1s,4s)-4-((6′-((2-(1-(Cyclopropylsulfonyl)-1H-pyrazol-4-yl)pyrimidin-4-yl)amino)-5-(2,2,2-trifluoroethyl)-[2,3′-bipyridin]-4′-yl)amino)cyclohexyl)ethan-1-ol], for which the IC50 in assay [1] (setting [6]) is 2.4 nM; in assay [1] (setting [7]) it was 5 nM; in assay [2] (setting [8]), 4.4 nM; in assay [2] (IC50 L858R/C797S, 100 μM ATP) it was 116 nM; in assay [3] (setting [9]), 11.5 nM; in assay [3] (IC50 WT, 100 μM ATP), > 10000 nM. In addition, the IC50 in assay [4] (setting [10]) turned out to be 10.2 nM; in assay [4] (IC50 del19/C797S, 100 μM ATP), 14.6 nM; in assay [5] (setting [11]), 6.4 nM; in assay [5] (setting [12]), 3.5 nM.
`CS(=O)(=O)c1ccc(-c2cnc(Nc3ccnc(-c4cnn(S(=O)(=O)C5CC5)c4)n3)cc2N[C@H]2CC[C@@](C)(O)CC2)nc1` [Example 156, (1s,4s)-4-((6′-((2-(1-(Cyclopropylsulfonyl)-1H-pyrazol-4-yl)pyrimidin-4-yl)amino)-5-(methylsulfonyl)-[2,3′-bipyridin]-4′-yl)amino)-1-methylcyclohexan-1-ol]: the IC50 in assay [1] (setting [6]) was 0.1 nM; in assay [1] (setting [7]) it was 0.2 nM; in assay [2] (setting [8]), 0.4 nM; in assay [3] (IC50 WT, 100 μM ATP), > 10000 nM; in assay [4] (setting [10]), 0.3 nM; in assay [4] (IC50 del19/C797S, 100 μM ATP), 0.3 nM. In addition, the IC50 in assay [5] (setting [11]) is 0.1 nM; in assay [5] (setting [12]), 0.2 nM.
As for `CC(C)(F)c1ccc(-c2cnc(Nc3ccnc(-c4cnn(S(=O)(=O)C5CC5)c4)n3)cc2N[C@H]2CC[C@@](C)(O)CC2)nc1` [Example 291, (1s,4s)-4-((6′-((2-(1-(Cyclopropylsulfonyl)-1H-pyrazol-4-yl)pyrimidin-4-yl)amino)-5-(2-fluoropropan-2-yl)-[2,3′-bipyridin]-4′-yl)amino)-1-methylcyclohexan-1-ol], the IC50 was 0.5 nM in assay [1] (setting [6]); 1 nM in assay [1] (setting [7]); 2.3 nM in assay [2] (setting [8]); 2.8 nM in assay [2] (IC50 L858R/C797S, 100 μM ATP); 3.7 nM in assay [3] (setting [9]); > 10000 nM in assay [3] (IC50 WT, 100 μM ATP). For the same compound, the IC50 in assay [4] (IC50 del19/C797S, 100 μM ATP) turned out to be 4.9 nM; in assay [5] (setting [11]) it was 0.5 nM.
For `CC(C)(O)[C@H]1CC[C@@H](Nc2cc(Nc3ccnc(-c4cnn(S(=O)(=O)C5CC5)c4)n3)ncc2-c2ccc(OC(F)(F)F)cn2)CC1` [Example 196, 2-((1s,4s)-4-((6′-((2-(1-(Cyclopropylsulfonyl)-1H-pyrazol-4-yl)pyrimidin-4-yl)amino)-5-(trifluoromethoxy)-[2,3′-bipyridin]-4′-yl)amino)cyclohexyl)propan-2-ol], the IC50 in assay [1] (setting [7]) is 9.5 nM; in assay [2] (IC50 L858R/C797S, 100 μM ATP), > 10000 nM; in assay [3] (IC50 WT, 100 μM ATP), > 10000 nM; in assay [4] (IC50 del19/C797S, 100 μM ATP) it was 135 nM; in assay [5] (setting [12]) it was 14.7 nM.
With `C[C@]1(O)CC[C@@H](Nc2cc(Nc3ccnc(-c4cnn(S(=O)(=O)C5CC5)c4)n3)ncc2-c2ccc(OCCN3CCC3)cn2)CC1` [Example 290, (1s,4s)-4-((5-(2-(Azetidin-1-yl)ethoxy)-6′-((2-(1-(cyclopropylsulfonyl)-1H-pyrazol-4-yl)pyrimidin-4-yl)amino)-[2,3′-bipyridin]-4′-yl)amino)-1-methylcyclohexan-1-ol], the IC50 turned out to be 0.1 nM in assay [1] (setting [6]); 0.2 nM in assay [1] (setting [7]); 0.1 nM in assay [2] (setting [8]); 0.6 nM in assay [2] (IC50 L858R/C797S, 100 μM ATP); 0.5 nM in assay [3] (setting [9]); 118 nM in assay [3] (IC50 WT, 100 μM ATP). The IC50 worked out at 0.2 nM in assay [4] (setting [10]); 0.3 nM in assay [4] (IC50 del19/C797S, 100 μM ATP); 0.4 nM in assay [5] (setting [11]); 0.4 nM in assay [5] (setting [12]).
On to `C[C@]1(O)CC[C@@H](Nc2cc(Nc3ccnc(-c4cnn(S(=O)(=O)C5CC5)c4)n3)ncc2-c2cnc(OC3CCN(CCF)CC3)cn2)CC1` [Example 153, (1s,4s)-4-((2-((2-(1-(Cyclopropylsulfonyl)-1H-pyrazol-4-yl)pyrimidin-4-yl)amino)-5-(5-((1-(2-fluoroethyl)piperidin-4-yl)oxy)pyrazin-2-yl)pyridin-4-yl)amino)-1-methylcyclohexan-1-ol], for which the IC50 in assay [1] (setting [6]) came out at 0.1 nM; in assay [2] (setting [8]), 0.2 nM; in assay [3] (setting [9]) it was 3.2 nM; in assay [4] (setting [10]), 0.2 nM; in assay [5] (setting [11]), 0.4 nM.
Consider `CC(C)(O)[C@H]1CC[C@@H](Nc2cc(Nc3ccnc(-c4cnn(S(=O)(=O)C5CC5)c4)n3)ncc2-c2ccc(C(=O)N3CCOCC3)cn2)CC1` [Example 201, (6′-((2-(1-(Cyclopropylsulfonyl)-1H-pyrazol-4-yl)pyrimidin-4-yl)amino)-4′-(((1s,4s)-4-(2-hydroxypropan-2-yl)cyclohexyl)amino)-[2,3′-bipyridin]-5-yl)(morpholino)methanone], for which the IC50 in assay [1] (setting [6]) is 0.1 nM; in assay [1] (setting [7]), 0.4 nM; in assay [2] (setting [8]), 0.5 nM; in assay [2] (IC50 L858R/C797S, 100 μM ATP), 1.8 nM; in assay [3] (setting [9]), 2.2 nM; in assay [3] (IC50 WT, 100 μM ATP), 1040 nM. The IC50 came out at 0.5 nM in assay [4] (setting [10]); 0.6 nM in assay [4] (IC50 del19/C797S, 100 μM ATP); 0.3 nM in assay [5] (setting [11]); 0.4 nM in assay [5] (setting [12]).
With `CC(C)(O)c1ccc(-c2cnc(Nc3ccnc(-c4cnn(S(=O)(=O)C5CC5)c4)n3)cc2N[C@H]2CC[C@@H](F)CC2)nc1` [Example 173, 2-(6′-((2-(1-(Cyclopropylsulfonyl)-1H-pyrazol-4-yl)pyrimidin-4-yl)amino)-4′-(((1s,4s)-4-fluorocyclohexyl)amino)-[2,3′-bipyridin]-5-yl)propan-2-ol], the IC50 in assay [1] (setting [6]) was found to be 0.9 nM; in assay [2] (setting [8]), 1.6 nM; in assay [3] (setting [9]), 23.2 nM; in assay [4] (setting [10]), 7.9 nM; in assay [5] (setting [11]), 1.8 nM.
Consider `C[C@]1(O)CC[C@@H](Nc2cc(Nc3ccnc(-c4cnn(S(=O)(=O)C5CC5)c4)n3)ncc2-c2cc(OCCN3CCOCC3)ccn2)CC1` [Example 211, (1s,4s)-4-((6′-((2-(1-(Cyclopropylsulfonyl)-1H-pyrazol-4-yl)pyrimidin-4-yl)amino)-4-(2-morpholinoethoxy)-[2,3′-bipyridin]-4′-yl)amino)-1-methylcyclohexan-1-ol], for which the IC50 in assay [1] (setting [6]) is 0.1 nM; in assay [1] (setting [7]) it was 0.4 nM; in assay [2] (setting [8]) it was 0.5 nM; in assay [2] (IC50 L858R/C797S, 100 μM ATP) it was 30.1 nM; in assay [3] (setting [9]), 6.9 nM; in assay [3] (IC50 WT, 100 μM ATP) it was 9480 nM. Further, the IC50 worked out at 2.4 nM in assay [4] (IC50 del19/C797S, 100 μM ATP); 0.3 nM in assay [5] (setting [11]); 0.5 nM in assay [5] (setting [12]).
Consider `CC(C)(O)C1CCC(Nc2cc(Nc3ccnc(-c4cnn(S(=O)(=O)C5CC5)c4)n3)ncc2-c2ccc(C(O)C(F)(F)F)cn2)CC1` (stereo not drawn) [Example 229, 2-((1s,4s)-4-((6′-((2-(1-(Cyclopropylsulfonyl)-1H-pyrazol-4-yl)pyrimidin-4-yl)amino)-5-(2,2,2-trifluoro-1-hydroxyethyl)-[2,3′-bipyridin]-4′-yl)amino)cyclohexyl)propan-2-ol], for which the IC50 in assay [1] (setting [6]) worked out at 0.9 nM; in assay [1] (setting [7]), 1.9 nM; in assay [2] (setting [8]), 11.5 nM; in assay [2] (IC50 L858R/C797S, 100 μM ATP), 96.1 nM; in assay [3] (setting [9]) it was 17.4 nM; in assay [3] (IC50 WT, 100 μM ATP), 9480 nM. Moreover, the IC50 in assay [4] (setting [10]) was 4.8 nM; in assay [4] (IC50 del19/C797S, 100 μM ATP), 20.8 nM; in assay [5] (setting [11]) it was 3.3 nM; in assay [5] (setting [12]), 4.4 nM.
For `O=S(=O)(C1CC1)n1cc(-c2nccc(Nc3cc(N[C@H]4CC[C@@H](CO)CC4)c(-c4ccc(CN5CCC(O)CC5)cn4)cn3)n2)cn1` [Example 99, 1-((6′-((2-(1-(Cyclopropylsulfonyl)-1H-pyrazol-4-yl)pyrimidin-4-yl)amino)-4′-(((1s,4s)-4-(hydroxymethyl)cyclohexyl)amino)-[2,3′-bipyridin]-5-yl)methyl) piperidin-4-ol], the IC50 in assay [1] (IC50 L858R/T790M/C797S (nM) 100 μM ATP, 100 μM ATP) is 0.1 nM; in assay [1] (Km ATP, read-out: IC50 L858R/T790M/C797S (nM) Km ATP), 0.04 nM; in assay [2] (IC50 L858R/C797S (nM) 100 μM ATP, 100 μM ATP) it was 0.7 nM; in assay [2] (Km ATP, read-out: IC50 L858R/C797S (nM) Km ATP), 0.1 nM; in assay [3] (IC50 WT (nM) 100 μM ATP, 100 μM ATP), 61.5 nM; in assay [3] (Km ATP, read-out: IC50 WT (nM) Km ATP), 0.3 nM. The IC50 is 0.3 nM in assay [4] (IC50 del19/C797S (nM) 100 μM ATP, 100 μM ATP); 0.3 nM in assay [4] (Km ATP, read-out: IC50 del19/C797S (nM) Km ATP); 0.1 nM in assay [5] (IC50 del19/T790M/C797S (nM) 100 μM ATP, 100 μM ATP); 0.1 nM in assay [5] (Km ATP, read-out: IC50 del19/T790M/C797S (nM) Km ATP).
